In patent US4965365A, “Imidazole derivatives and a process for the preparation thereof” (Laboratorios Vinas, S.A., priority 1988, dated 1990):

What was measured:
ethanol induced ulcers = conditions: equimolecular doses
Method: (B) Necrotic agent model.
The activity of this compound vs cimetidine at equimolecular doses and a control group administered a vehicle was tested using the necrotic agent model, in this case ethanol, described by A. Robert et al. (Gastroenterology, 77: 433, 1979).

[1] = test system: histamine induced gastric acid secretion; conditions: 15 mg/kg, i.p., rat, intragastric pH
Method: (A) histamine induced gastric acid secretion model "in vivo" in the rat.
This activity was measured in Wistar rats of 240±20 g body weight. An endovenous perfusion of a histamine solution stimulated the gastric acid secretion, causing a drop in the intragastric pH. Thereafter, this compound was administered i.p. and the increase in gastric pH caused was evaluated.

Structure (SMILES)	% inhibition of ulcers vs the control (ethanol induced ulcers; ethanol model)	mm damaged (lesion index, mm of ulcer) (ethanol induced ulcers; mean ± standard error of the mean, control 91.4 ± 8.1, a: t test p< 0.05 vs control)	pH Recovery [1]
CNC(=NC#N)NCCSCc1nc[nH]c1C [Cimetidine, cimetidine]	30.3%	63.7 ± 7.7 mm	–
CN=C(NC#N)NCCSCc1nc[nH]c1C.[Cl][Zn][Cl] [Zn(cimetidine)Cl2]	–	–	65.5%
